Laboratory results reported in ChEMBL document CHEMBL1201862, “PubChem BioAssay data set” (2004).
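Compound exposure: 48 hours, 5 concentrations, 96-well plates. GI50 marks 50% less growth.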 Calls of active or inactive are those of the source. Cut-off read from the data, not from the text of the source: active = GI50 up to about 1.1 µM and inactive = higher.

What was measured:
Experiment in all cases: inhibition of tumour cell growth, NCI panel, 48 h
[1] = system: HCT-15
[2] = system: MDA-MB-435
[3] = system: MCF7
[4] = system: CAKI-1
[5] = system: MDA-N
[6] = system: UACC-62
[7] = system: KM12
[8] = system: U-251
[9] = system: LOX IMVI
[10] = system: OVCAR-5
[11] = system: NCI-H226
[12] = system: ACHN
[13] = system: OVCAR-4
[14] = system: HCC 2998
[15] = system: M14
[16] = system: MDA-MB-231
[17] = system: MOLT-4
[18] = system: BT-549
[19] = system: NCI-H460
[20] = system: Malme-3M

COc1cccc([C@@H]2CC(=O)c3cc4c(cc3N2)OCO4)c1
GI50 [1]: > 100 µM
GI50 [2]: 71.6 µM (inactive)
GI50 [3]: > 100 µM (inactive)
GI50 [4]: > 100 µM (inactive)
GI50 [5]: > 100 µM (inactive)
GI50 [6]: 65.3 µM (inactive)
GI50 [7]: > 100 µM (inactive)
GI50 [8]: > 100 µM (inactive)
GI50 [9]: > 100 µM (inactive)
GI50 [10]: > 100 µM (inactive)
GI50 [11]: > 100 µM (inactive)
GI50 [12]: > 100 µM (inactive)
GI50 [13]: > 100 µM (inactive)
GI50 [14]: > 100 µM (inactive)
GI50 [15]: > 100 µM (inactive)
GI50 [16]: > 100 µM (inactive)

COc1ccc(OC)c(C(Cc2ccnc3ccccc23)Cc2ccnc3ccccc23)c1
GI50 [1]: 6.44 µM
GI50 [2]: 0.56 µM (active)
GI50 [3]: 4.93 µM (inactive)
GI50 [4]: > 10 µM (inactive)
GI50 [17]: 5.79 µM (inactive)
GI50 [6]: > 10 µM (inactive)
GI50 [7]: 7.29 µM (inactive)
GI50 [8]: > 10 µM (inactive)
GI50 [9]: 5.36 µM (inactive)
GI50 [10]: > 10 µM (inactive)
GI50 [11]: 9.57 µM (inactive)
GI50 [12]: > 10 µM (inactive)
GI50 [18]: 4.09 µM (inactive)
GI50 [13]: 6.11 µM (inactive)
GI50 [14]: > 10 µM (inactive)
GI50 [15]: > 10 µM (inactive)
GI50 [19]: 5.47 µM (inactive)
GI50 [16]: > 10 µM (inactive)

CC1[C@@H](OCc2ccccc2)COC(=O)N1Cc1ccccc1 (stereo partly drawn)
GI50 [1]: > 100 µM
GI50 [2]: > 100 µM (inactive)
GI50 [3]: 81.8 µM (inactive)
GI50 [17]: 33.3 µM (inactive)
GI50 [5]: > 100 µM (inactive)
GI50 [6]: > 100 µM (inactive)
GI50 [7]: > 100 µM (inactive)
GI50 [8]: > 100 µM (inactive)
GI50 [9]: > 100 µM (inactive)
GI50 [10]: > 100 µM (inactive)
GI50 [11]: > 100 µM (inactive)
GI50 [20]: > 100 µM (inactive)
GI50 [12]: > 100 µM (inactive)
GI50 [13]: 78 µM (inactive)
GI50 [15]: > 100 µM (inactive)
GI50 [16]: > 100 µM (inactive)

O=c1ccn2n1CCCCC2
GI50 [1]: > 100 µM
GI50 [2]: > 100 µM (inactive)
GI50 [4]: > 100 µM (inactive)
GI50 [17]: > 100 µM (inactive)
GI50 [5]: > 100 µM (inactive)
GI50 [6]: > 100 µM (inactive)
GI50 [7]: > 100 µM (inactive)
GI50 [8]: > 100 µM (inactive)
GI50 [9]: > 100 µM (inactive)
GI50 [10]: > 100 µM (inactive)
GI50 [11]: > 100 µM (inactive)
GI50 [20]: > 100 µM (inactive)
GI50 [12]: > 100 µM (inactive)
GI50 [13]: > 100 µM (inactive)
GI50 [14]: > 100 µM (inactive)
GI50 [15]: > 100 µM (inactive)
GI50 [19]: > 100 µM (inactive)
GI50 [16]: > 100 µM (inactive)

CSc1ncnc2c1ncn2CCC(=O)O
GI50 [2]: > 100 µM (inactive)
GI50 [3]: > 100 µM (inactive)
GI50 [4]: > 100 µM (inactive)
GI50 [17]: > 100 µM (inactive)
GI50 [5]: > 100 µM (inactive)
GI50 [6]: > 100 µM (inactive)
GI50 [7]: > 100 µM (inactive)
GI50 [9]: > 100 µM (inactive)
GI50 [10]: > 100 µM (inactive)
GI50 [11]: > 100 µM (inactive)
GI50 [20]: > 100 µM (inactive)
GI50 [12]: > 100 µM (inactive)
GI50 [13]: > 100 µM (inactive)
GI50 [15]: > 100 µM (inactive)
GI50 [19]: > 100 µM (inactive)
GI50 [16]: > 100 µM (inactive)

CCCCCCCC/C=C\CCCCCCCC(=O)OC[C@]1(CO)CCC(=O)O1
GI50 [1]: > 100 µM
GI50 [2]: > 100 µM (inactive)
GI50 [3]: > 100 µM (inactive)
GI50 [4]: > 100 µM (inactive)
GI50 [17]: > 100 µM (inactive)
GI50 [6]: > 100 µM (inactive)
GI50 [7]: > 100 µM (inactive)
GI50 [8]: > 100 µM (inactive)
GI50 [9]: > 100 µM (inactive)
GI50 [10]: > 100 µM (inactive)
GI50 [11]: > 100 µM (inactive)
GI50 [20]: > 100 µM (inactive)
GI50 [12]: > 100 µM (inactive)
GI50 [18]: > 100 µM (inactive)
GI50 [13]: > 100 µM (inactive)
GI50 [14]: > 100 µM (inactive)
GI50 [15]: > 100 µM (inactive)
GI50 [19]: > 100 µM (inactive)
GI50 [16]: > 100 µM (inactive)
